Results published in patent US20240190891A1, “PYRIDO OXAZINE AMINO DERIVATIVES AS ALK5 INHIBITORS” (CHIESI FARMACEUTICI S.P.A., priority 2020, published 2024).

These molecules were tested against T1, human ALK5 (Homo sapiens, UniProt P36897) (assay: ADP-GLO Kinases assay, inhibitory activity on ALK5). Conditions: Table 10; purified recombinant human ALK5 2.6 nM, ADP-Glo, 25° C., 150 min incubation.
T1 construct: human ALK5 (recombinant TGF β1 N-term GST-tagged, 80-end); GST (N); purchased
T1 sequence (P36897 80-503 limits assumed): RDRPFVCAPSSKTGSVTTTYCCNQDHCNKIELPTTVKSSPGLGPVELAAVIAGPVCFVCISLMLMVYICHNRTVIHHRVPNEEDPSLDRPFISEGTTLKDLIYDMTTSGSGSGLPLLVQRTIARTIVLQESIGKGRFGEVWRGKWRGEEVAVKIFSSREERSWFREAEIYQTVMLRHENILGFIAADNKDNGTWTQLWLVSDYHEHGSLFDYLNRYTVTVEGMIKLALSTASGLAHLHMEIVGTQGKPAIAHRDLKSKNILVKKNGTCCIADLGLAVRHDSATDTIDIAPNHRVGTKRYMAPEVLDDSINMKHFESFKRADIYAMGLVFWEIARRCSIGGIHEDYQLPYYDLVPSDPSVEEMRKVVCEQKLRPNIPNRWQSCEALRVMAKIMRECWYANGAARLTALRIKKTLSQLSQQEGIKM
Format: biochemical
Procedure: The enzymatic activity of compounds of the present invention was monitored measuring the formation of ADP using the ADP-GLO Kinases assay. Following the incubation of the purified enzyme, a substrate and ATP, the produced ADP was converted into ATP, which in turn was converted into light by Ultra-Glo Luciferase. The luminescent signal positively correlated with ADP amount and kinase activity. Briefly, the kinase reaction was performed by incubating 2.6 nM of the purified, commercially available human ALK5 (recombinant TGF β1 N-term GST-tagged, 80-end), a final concentration of TGFβ1 peptide 94.5 μM (Promega, T36-58) and ultra-pure ATP (Promega V915B). The ATP concentration was set at the Km value (concentration of substrate which permits the enzyme to achieve half maximal velocity (Vmax)) of ALK5 (5 μM). All reactions/incubations were performed at 25° C. Compound and ALK5 kinase were mixed and incubated for 15 mins. Reactions were initiated by addition of ATP at a final concentration in the assay of 0.83 μM. After an incubation of 150 min, the reaction was stopped, and ADP production detected with ADP-Glo kit according to manufacturer's indications. The assay was performed in 384-well format and was validated using a selection of reference compounds that was tested in 11 point concentration-response curve.
Compounds of the examples C1, C2 and C3 were tested in the same in vitro assay described above.
Molecule `O=C(CCN1CCOCC1)Nc1cc(Nc2cc(-c3cc(Cl)ccc3F)nc3c2OCCN3)ccn1` [Example 20, N-(4-{[6-(5-chloro-2-fluorophenyl)-2H,3H,4H-pyrido[3,2-b][1,4]oxazin-8-yl]amino}pyridin-2-yl)-3-(morpholin-4-yl)propanamide] has an IC50 of less than 1 nM. `O=C(NCCN1CCNCC1)c1cnccc1Nc1cc(-c2cc(Cl)ccc2F)nc2c1OCCN2` [Example 12, 4-{[6-(5-chloro-2-fluorophenyl)-2H,3H,4H-pyrido[3,2-b][1,4]oxazin-8-yl]amino}-N-[2-(piperazin-1-yl)ethyl]pyridine-3-carboxamide] showed an IC50 of less than 1 nM. For `O=C(NCCN(CCO)CCO)c1cnccc1Nc1cc(-c2cc(Cl)ccc2F)nc2c1OCCN2` [Example 37, N-{2-[bis(2-hydroxyethyl)amino]ethyl}-4-{[6-(5-chloro-2-fluorophenyl)-2H,3H,4H-pyrido[3,2-b][1,4]oxazin-8-yl]amino}pyridine-3-carboxamide], the IC50 was less than 1 nM. `Fc1ccc(-c2cc(Nc3ccncc3)c3c(n2)NCCO3)cc1Cl` [Example 19, N-[6-(3-chloro-4-fluorophenyl)-2H,3H,4H-pyrido[3,2-b][1,4]oxazin-8-yl]pyridin-4-amine] was tested, and the IC50 was 5 to 10 nM. Molecule `Nc1cnccc1Nc1cc(-c2cc(Cl)ccc2F)nc2c1OCCN2` [Example 7, N4-[6-(5-chloro-2-fluorophenyl)-2H,3H,4H-pyrido[3,2-b][1,4]oxazin-8-yl]pyridine-3,4-diamine] has an IC50 of 1 to 5 nM. For `CN1CCC(NC(=O)c2cnccc2Nc2cc(-c3cc(Cl)ccc3F)nc3c2OCCN3)CC1` [Example 32, 4-{[6-(5-chloro-2-fluorophenyl)-2H,3H,4H-pyrido[3,2-b][1,4]oxazin-8-yl]amino}-N-(1-methylpiperidin-4-yl)pyridine-3-carboxamide], the IC50 was less than 1 nM. With `Fc1ccc(Cl)cc1-c1cc(Nc2ccncc2)c2c(n1)NCCO2` [Example 1, N-[6-(5-chloro-2-fluorophenyl)-2H,3H,4H-pyrido[3,2-b][1,4]oxazin-8-yl]-pyridine-4-amine] the IC50 was less than 1 nM. `CN1CCN(CCOC(=O)c2cnccc2Nc2cc(-c3cc(Cl)ccc3F)nc3c2OCCN3)CC1` [Example 29, 2-(4-methylpiperazin-1-yl)ethyl 4-{[6-(5-chloro-2-fluorophenyl)-2H,3H,4H-pyrido[3,2-b][1,4]oxazin-8-yl]amino}pyridine-3-carboxylate] showed an IC50 of less than 1 nM. `CNC(=O)c1cnccc1Nc1cc(-c2cc(Cl)ccc2F)nc2c1OCCN2` [Example 2, 4-{[6-(5-chloro-2-fluorophenyl)-2H,3H,4H-pyrido[3,2-b][1,4]oxazin-8-yl]amino}-N-methylpyridine-3-carboxamide] gave an IC50 of less than 1 nM. `CN(C)CCNC(=O)c1cc2c(Nc3cc(-c4cc(Cl)ccc4F)nc4c3OCCN4)ccnc2[nH]1` [Example 49, 4-{[6-(5-chloro-2-fluorophenyl)-2H,3H,4H-pyrido[3,2-b][1,4]oxazin-8-yl]amino}-N-[2-(dimethylamino)ethyl]-1H-pyrrolo[2,3-b]pyridine-2-carboxamide] showed an IC50 of less than 1 nM. With `CNCCNC(=O)c1cnccc1Nc1cc(-c2cc(Cl)ccc2F)nc2c1OCCN2` [Example 21, 4-{[6-(5-chloro-2-fluorophenyl)-2H,3H,4H-pyrido[3,2-b][1,4]oxazin-8-yl]amino}-N-[2-(methylamino)ethyl]pyridine-3-carboxamide] the IC50 was less than 1 nM. For `Cc1cccc(-c2cc(Nc3ccnc4[nH]cnc34)c3c(n2)NCCO3)n1` [Example 40, N-{3H-imidazo[4,5-b]pyridin-7-yl}-6-(6-methylpyridin-2-yl)-2H,3H,4H-pyrido[3,2-b][1,4]oxazin-8-amine], the IC50 was less than 1 nM. `O=C(NC1CC1)c1cnccc1Nc1cc(-c2cc(Cl)ccc2F)nc2c1OCCN2` [Example 23, 4-{[6-(5-chloro-2-fluorophenyl)-2H,3H,4H-pyrido[3,2-b][1,4]oxazin-8-yl]amino}-N-cyclopropylpyridine-3-carboxamide] was tested, and the IC50 was less than 1 nM. `Nc1cc(Nc2cc(-c3cc(Cl)ccc3F)nc3c2OCCN3)ccn1` [Example 3, N4-[6-(5-chloro-2-fluorophenyl)-2H,3H,4H-pyrido[3,2-b][1,4]oxazin-8-yl]pyridine-2,4-diamine] showed an IC50 of 1 to 5 nM. In the case of `Fc1ccc(Cl)cc1-c1cc(Nc2ccnc3[nH]ccc23)c2c(n1)NCCO2` [Example 31, 6-(5-chloro-2-fluorophenyl)-N-{1H-pyrrolo[2,3-b]pyridin-4-yl}-2H,3H,4H-pyrido[3,2-b][1,4]oxazin-8-amine], the IC50 is reported as less than 1 nM. `Cc1csc(-c2cc(Nc3ccncc3)c3c(n2)NCCO3)n1` [Example 4, N-[6-(4-methyl-1,3-thiazol-2-yl)-2H,3H,4H-pyrido[3,2-b][1,4]oxazin-8-yl]pyridin-4-amine] showed an IC50 of 5 to 10 nM. Molecule `Fc1ccccc1-c1cc(Nc2ccncc2)c2c(n1)NCCO2` [Example 11, N-[6-(2-fluorophenyl)-2H,3H,4H-pyrido[3,2-b][1,4]oxazin-8-yl]pyridin-4-amine] has an IC50 of 1 to 5 nM. For `CN1CCC(CCNC(=O)c2cc3c(Nc4cc(-c5cc(Cl)ccc5F)nc5c4OCCN5)ccnc3[nH]2)CC1` [Example 48, 4-{[6-(5-chloro-2-fluorophenyl)-2H,3H,4H-pyrido[3,2-b][1,4]oxazin-8-yl]amino}-N-[2-(1-methylpiperidin-4-yl)ethyl]-1H-pyrrolo[2,3-b]pyridine-2-carboxamide], the IC50 was less than 1 nM. In the case of `O=C(O)c1cnccc1Nc1cc(-c2cc(Cl)ccc2F)nc2c1OCCN2` [Example 16, lithium 4-{[6-(5-chloro-2-fluorophenyl)-2H,3H,4H-pyrido[3,2-b][1,4]oxazin-8-yl]amino}pyridine-3-carboxylate], the IC50 is reported as less than 1 nM. `CN1CCN(CCC(=O)Nc2cc(Nc3cc(-c4cc(Cl)ccc4F)nc4c3OCCN4)ccn2)CC1` [Example 33, N-(4-{[6-(5-chloro-2-fluorophenyl)-2H,3H,4H-pyrido[3,2-b][1,4]oxazin-8-yl]amino}pyridin-2-yl)-3-(4-methylpiperazin-1-yl)propanamide] was tested, and the IC50 was less than 1 nM.
